From patent US8114850B2, “Antiproliferative activity of G-rich oligonucleotides and method of using same to bind to nucleolin” (Advanced Cancer Therapeutics, LLC, priority 1999, dated 2012)

How the values were obtained:
[1] = target: T1, G-rich oligonucleotide binding protein / nucleolin (Homo sapiens, UniProt P19338); assay: Protein binding, summary statements (EMSA); conditions: summary statement
T1 construct: endogenous in cells; MDA-MB-231)
From the text: (§1) By G-rich oligonucleotide (GRO) it is meant that the oligonucleotides consist of 4-100 nucleotides (preferably 10-30 nucleotides) with DNA, RNA, 2′-O-methyl, phosphorothioate or other chemically similar backbones. Their sequences contain one or more GGT motifs. The oligonucleotides have antiproliferative activity against cells and bind to GRO binding protein and/or nucleolin.
Additionally, the present invention provides a method for selecting oligonucleotides that bind to nucleolin. The method utilizes an electrophoretic mobility shift assay (EMSA), as described below, to screen for oligonucleotides that bind strongly to nucleolin and which, therefore, would be expected, according to the present invention, to have anti-proliferative activity. Oligonucleotides to be screened as potential antiproliferative agents are labeled and then incubated with nuclear extracts in the absence or presence of unlabeled competitor oligonucleotide and are allowed to react. The reaction mixtures are then electrophoresed and mobility shifts and/or bond intensity can be used to identify those oligonucleotides which have bound to the specific protein.
Alternatively, unlabeled compounds to be screened are incubated with nuclear extracts in the presence of labeled oligonucleotide (for example 5′-TTAGGGTTAGGGTTAGGG TTAGGG) (SEQ ID NO: 20) and binding is assessed by a decrease in the intensity of the shifted band, as in FIG. 6B.

[2] = tested on: breast cancer cells; assay: Summary statements on growth of breast cancer cells / antiproliferative activity; assay type: cell-based; conditions: for antiproliferative activity: cells not given; for modulate the growth of breast cancer cells and/or compete for binding to the G-rich oligonucleotide binding protein (EMSA): and/or statement, FIGS. 6 and 7
From the text: as §1

[3] = tested on: MDA-MB-231 breast cancer cells; assay: MTT cell growth assay, MDA-MB-231 cells; assay type: cell-based, human; conditions: for antiproliferative activity, MDA-MB-231: single 10 uM dose, FIG. 7A
Protocol: Cells were plated at low density ([…] cells per well, depending on cell line) in the appropriate serum-supplemented medium in 96-well plates (one plate per MTT assay time point) and grown under standard conditions of cell culture. The following day (day 1) oligonucleotide, or water as control, was added to the culture medium to give a final concentration of 15 uM. Further oligonucleotide, equivalent to half the initial dose, was added to the culture medium on days two, three and four. Cells were assayed using the MTT assay (Morgan (1998) Methods. Mol. Biol. 79, 179-183) on days one, three, five, seven and nine after plating. The culture medium was not changed throughout the duration of the experiment (which was the time required for untreated cells to grow to confluence). Experiments were performed in triplicate and bars represent the standard error of the data. For the experiment shown in FIG. 7A, MDA-MB-231 breast cancer cells (5×10^2 cells per well) were plated in a 96-well plate. After twenty-four hours, a single dose of oligonucleotide, or equal volume of PBS as a control, was added to the culture medium to a final concentration of 10 uM. Viable cells were assessed seven days after plating using the MTT assay. For the experiment using 3′-unmodified oligonucleotides (FIG. 7D), serum-supplemented medium was replaced by serum-free medium containing oligonucleotide (or serum-free medium alone in control wells). After incubation at 37° C. for four hours, fetal calf serum (Life Technologies, Inc.) was added to the medium to give 10% v/v.

[4] = target: T2, TEL-binding protein (GRO-binding protein/nucleolin, MDA-MB-231 nuclear extracts) (Homo sapiens, UniProt P19338); assay: Competitive EMSA, labeled TEL and MDA-MB-231 nuclear extracts; conditions: for competition with TEL for binding to the nuclear protein: unlabeled competitor, 10-fold molar excess, FIG. 7B
T2 construct: Nuclear and cytoplasmic extracts from MDA-MB-231 cells were prepared using the protocol described in F. M. Ausubel et al; endogenous in cells; host or cells: MDA-MB-231 nuclear extract, prepared in house
T2 sequence (P19338 whole entry): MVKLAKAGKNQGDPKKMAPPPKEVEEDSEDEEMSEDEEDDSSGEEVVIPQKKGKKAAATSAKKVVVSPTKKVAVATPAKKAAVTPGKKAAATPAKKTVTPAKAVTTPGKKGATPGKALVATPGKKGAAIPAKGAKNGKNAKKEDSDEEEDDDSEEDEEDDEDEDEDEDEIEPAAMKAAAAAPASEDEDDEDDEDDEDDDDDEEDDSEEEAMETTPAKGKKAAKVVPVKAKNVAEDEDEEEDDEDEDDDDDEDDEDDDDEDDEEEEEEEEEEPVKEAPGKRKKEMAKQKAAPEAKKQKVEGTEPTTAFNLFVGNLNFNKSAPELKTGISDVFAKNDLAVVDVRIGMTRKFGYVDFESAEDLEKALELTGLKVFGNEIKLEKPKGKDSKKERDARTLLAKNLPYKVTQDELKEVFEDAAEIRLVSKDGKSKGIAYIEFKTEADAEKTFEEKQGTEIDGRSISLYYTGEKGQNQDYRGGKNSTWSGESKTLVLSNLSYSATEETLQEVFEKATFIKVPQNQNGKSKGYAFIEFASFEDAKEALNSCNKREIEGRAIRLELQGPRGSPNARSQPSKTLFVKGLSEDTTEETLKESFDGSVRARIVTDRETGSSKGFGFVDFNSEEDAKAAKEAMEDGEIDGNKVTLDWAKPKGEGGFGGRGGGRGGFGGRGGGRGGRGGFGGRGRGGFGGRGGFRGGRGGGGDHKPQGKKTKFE

[5] = target: T3, GRO-binding protein/nucleolin (HeLa nuclear extracts) (Homo sapiens, UniProt P19338); assay: UV cross-linking of oligonucleotides to HeLa nuclear extracts; conditions: labeled oligonucleotide with HeLa nuclear extracts; FIG. 6C
T3 construct: HeLa nuclear extracts used in EMSAs were purchased from Promega Inc. (bandshift grade); host or cells: HeLa nuclear extract (bandshift grade), purchased
T3 sequence (P19338 whole entry): as above
Protocol: For the UV crosslinking experiments, samples were incubated as described above (EMSA). They were then placed on ice and irradiated at 5 cm from the source using the “autocross link” function of a Stratagene UV Stratalinker. Following irradiation, samples were electrophoresed under denaturing conditions on a 8% polyacrylamide-SDS gel using a standard Tris glycine buffer and visualized by autoradiography.
To determine the approximate molecular weight of the protein involved in complex A, and to confirm that competition for this complex results from direct binding of the protein to oligonucleotides, a UV cross-linking study was conducted. 5′-Labeled oligonucleotides and HeLa nuclear extracts were incubated alone or in the presence of unlabeled competitor oligonucleotides.
The samples were then irradiated with UV light resulting in cross-link formation between protein residues and thymidines in the oligonucleotide. The protein was thus radiolabeled and could be detected on a SDS-polyacrylamide gel.

[6] = Detection of G-quartets by UV thermal denaturation/renaturation; assay type: physicochemical; conditions: absorbance at 295 nm; for G-quartet formation (UV annealing curve): FIG. 4
Protocol: Oligonucleotides were resuspended in Tm buffer (20 mM Tris HCl, pH 8.0, 140 mM KCl, 2.5 mM MgCl2) at a concentration such that A260=0.6 (molar concentrations ranged from […]). Samples were annealed by boiling for five minutes and allowing to cool slowly to room temperature and overnight incubation at 4° C. Thermal denaturation/renaturation experiments were carried out using an Amersham Pharmacia Biotech Ultrospec 2000 instrument equipped with a Peltier effect heated cuvette holder and temperature controller (Amersham Pharmacia Biotech). Absorbance at 295 nm was monitored over a temperature range of 25-95 or 20-90° C. at a heating/cooling rate of 0.5° C./min. To investigate the formation of G-quartet structures by the G-rich oligonucleotides, a U.V. melting technique described by […] et al. (1998) FEBS Lett. 435, 74-78 was used. This method relies on the fact that dissociation of G-quartets leads to a decrease in absorbance at 295 nm and is reported to give a more reliable indication of intramolecular G-quartet formation than measurement at 260 nm.

[7] = tested on: MDA-MB-231 breast cancer cells; assay: Chemotherapeutic agent and GRO combination, MTT assay; assay type: cell-based, human; conditions: cisplatin 0.5 µg/ml, GR029A 8 uM added after two hours, MTT after six days
Protocol: Cisplatin (in 1% DMSO solution to give a final concentration of […]) was added to the medium of MDA-MB-231 breast cancer cells growing in culture. After two hours, GR029A (in PBS solution to give a final concentration of 8 uM) was added to the medium. After six days, the relative number of viable cells was determined using the MTT assay. Cells treated with GR029A alone received an appropriate volume of 1% DMSO in place of cisplatin. Cells treated with cisplatin alone received an appropriate volume of PBS in place of GR029A.

[8] = target: T4, 106 kDa nuclear protein (p106, GRO-binding protein/nucleolin) (Homo sapiens, UniProt P19338); assay: Southwestern blot of HeLa nuclear extracts; conditions: 32P-labeled oligonucleotide, 4° C.; FIG. 6D
T4 construct: HeLa nuclear extracts used in EMSAs were purchased from Promega Inc. (bandshift grade); host or cells: HeLa nuclear extract (bandshift grade), purchased
T4 sequence (P19338 whole entry): as above
Protocol: Nuclear extracts were electrophoresed on a 8% polyacrylamide-SDS gel and transferred to polyvinylidene difluoride (PVDF) membrane by electroblotting using a Tris glycine/methanol (10% v/v) buffer. Immobilized proteins were denatured and renatured by washing for thirty minutes at 4° C. with 6 M guanidine. HCl followed by washes in 1:1, 1:2 and 1:4 dilutions of 6M guanidine in HEPES binding buffer (25 mM HEPES pH 7.9, 4 mM KCl, 3 mM MgCl2). The membrane was blocked by washing for one hour in a 5% solution of non-fat dried milk (NDM) in binding buffer.
Hybridization of the labeled oligonucleotide (1-4×10^6 cpm) took place for two hours at 4° C. in HEPES binding buffer supplemented with 0.25% NDM, 0.05% Nonidet P […] salmon sperm DNA and […] of an unrelated, mixed sequence 35-mer oligonucleotide (5′-[…] CTTCCTTCCTCTCCA-3′SEQ ID No: 19). Membranes were washed in binding buffer and visualized by autoradiography.
The molecular weight of the nuclear protein was more accurately determined by Southwestern blotting. HeLa nuclear extracts were electrophoresed on an 8% polyacrylamide-SDS gel and transferred to a PVDF membrane. The membrane was blocked and cut into strips. Each strip was incubated at 4° C. with a 32P-labeled G-rich oligonucleotide in the presence of unrelated unlabeled double stranded and single stranded DNA to block non-specific binding.

T1 sequence (P19338 whole entry): as above

Compound | protein binding [1] | antiproliferative activity [2] | antiproliferative activity, MDA-MB-231 [3] | modulate the growth of breast cancer cells and/or compete for binding to the G-rich oligonucleotide binding protein (EMSA) [2] | also measured
5′-GGTGGTGGTGGTTGT GGTGGTGGTGGTTT-3′ (GGTGGTGGTGGTTGTGGTGGTGGTGGTTT; DNA, backbone not given here; further chemistry not fully specified) [GR029-6] | protein binding | demonstrated antiproliferative activity |  |  | 
5′-GGTTGGGGTGGGTGGGGTG GGTGGG-3′ (GGTTGGGGTGGGTGGGGTGGGTGGG; DNA, backbone not given here; further chemistry not fully specified) [GR025A] |  |  | moderate antiproliferative activity |  | competition with TEL for binding to the nuclear protein [4]: able to compete
5′-GTTGTTTGGGGTGG-3′ (DNA, backbone not given here; further chemistry not fully specified) [GRO14A] |  |  | moderate antiproliferative activity |  | competition with TEL for binding to the nuclear protein [4]: able to compete
5′-TGGTGGTGGTGGT-3′ (DNA, backbone not given here; further chemistry not fully specified) [GR029-13] |  |  |  | have been shown to modulate the growth of breast cancer cells and/or to compete for binding | 
5′-TTAGGGTTAGGGTTAGGGTTAGGG [TEL, reference compound] |  |  |  |  | growth of MDA-MB-231 cells, unmodified oligonucleotides ([3]; 10 uM in serum-free medium 4 h, then 10% fetal calf serum, day 7, FIG. 7D): modulated the growth of cells; UV cross-linked protein complex (approximately 100 kDa) [5]: crosslinked to a protein; G-quartet formation (UV annealing curve) [6]: clear transition; melting temperature of G-quartet transition ([6]; Tm buffer pH 8.0, 140 mM KCl, 0.5° C./min): 66 °C; competition for protein binding in competitive EMSA ([4]; 10 nM unlabeled oligonucleotide, […]): competed strongly
5′-TTTGGTGG TGGTGGTTTTGGTGGTGGTGG-3′ (TTTGGTGGTGGTGGTTTTGGTGGTGGTGG; aptamer; DNA, backbone not given here; further chemistry not fully specified) [GR029-2] | protein binding | demonstrated antiproliferative activity |  | have been shown to modulate the growth of breast cancer cells and/or to compete for binding | 
5′-TTTGGTGGTGGT GGTGTGGTGGTGGTGG-3′ (TTTGGTGGTGGTGGTGTGGTGGTGGTGG; DNA, backbone not given here; further chemistry not fully specified) [GR028B] | protein binding | demonstrated antiproliferative activity |  |  | 
5′-TTTGGTGGTGGTGGTGGTGGTGGTGGTGG-3′ (aptamer; DNA, backbone not given here; further chemistry not fully specified) [GR029-3] | protein binding | demonstrated antiproliferative activity |  | have been shown to modulate the growth of breast cancer cells and/or to compete for binding | 
5′-TTTGGTGGTGGTGGTTGTGG TGGTGGTG-3′ (TTTGGTGGTGGTGGTTGTGGTGGTGGTG; DNA, backbone not given here; further chemistry not fully specified) [GR028A] |  |  | moderate antiproliferative activity |  | competition with TEL for binding to the nuclear protein [4]: able to compete
5′-TTTGGTGGTGGTGGTTTGGGTGGTGG TGG-3′ (TTTGGTGGTGGTGGTTTGGGTGGTGGTGG; aptamer; DNA, backbone not given here; further chemistry not fully specified) [GR029-5] | protein binding | demonstrated antiproliferative activity |  | have been shown to modulate the growth of breast cancer cells and/or to compete for binding | 
N.N.[Cl][Pt][Cl] [cis-platin, reference compound] |  |  |  |  | growth modulation [7]: 29%
GRO15B: inactive G-rich oligonucleotide, SEQ ID NO: 22 (TTGGGGGGGGTGGGT; DNA, backbone not given here; further chemistry not fully specified) |  |  | inactive |  | hybridization to protein band at 106 kDa (Southwestern blot) [8]: hybridized only weakly; G-quartet formation (UV annealing curve) [6]: no transition characteristic of intramolecular G-quartet formation
heparin [reference compound] |  |  |  |  | growth of MDA-MB-231 cells, heparin ([3]; 20 units/ml (approximately 0.12 mg/ml), FIG. 7C): no effect on cell growth; competition for protein binding in competitive EMSA, heparin ([4]; 0.02 units/ml (approximately 0.12 ug/ml)): No competition
